In ChEMBL document CHEMBL4842385, “Indirubin Derivatives as Dual Inhibitors Targeting Cyclin-Dependent Kinase and Histone Deacetylase for Treating Cancer” (J Med Chem, 2021):

Experiments:
[1] = molecular target: CDK2/Cyclin A2 (Homo sapiens) (UniProt P24941+P20248); conditions: dose 100.0 nM, time 10.0 min
[2] = molecular target: T1, Protein deacetylase HDAC6 (Homo sapiens, UniProt Q9UBN7); experiment: Inhibition of recombiant human HDAC6 using fluorogenic HDAC substrate 3 measured after 30 mins by fluorescence microplate reader assay
T1 sequence (Q9UBN7 whole entry): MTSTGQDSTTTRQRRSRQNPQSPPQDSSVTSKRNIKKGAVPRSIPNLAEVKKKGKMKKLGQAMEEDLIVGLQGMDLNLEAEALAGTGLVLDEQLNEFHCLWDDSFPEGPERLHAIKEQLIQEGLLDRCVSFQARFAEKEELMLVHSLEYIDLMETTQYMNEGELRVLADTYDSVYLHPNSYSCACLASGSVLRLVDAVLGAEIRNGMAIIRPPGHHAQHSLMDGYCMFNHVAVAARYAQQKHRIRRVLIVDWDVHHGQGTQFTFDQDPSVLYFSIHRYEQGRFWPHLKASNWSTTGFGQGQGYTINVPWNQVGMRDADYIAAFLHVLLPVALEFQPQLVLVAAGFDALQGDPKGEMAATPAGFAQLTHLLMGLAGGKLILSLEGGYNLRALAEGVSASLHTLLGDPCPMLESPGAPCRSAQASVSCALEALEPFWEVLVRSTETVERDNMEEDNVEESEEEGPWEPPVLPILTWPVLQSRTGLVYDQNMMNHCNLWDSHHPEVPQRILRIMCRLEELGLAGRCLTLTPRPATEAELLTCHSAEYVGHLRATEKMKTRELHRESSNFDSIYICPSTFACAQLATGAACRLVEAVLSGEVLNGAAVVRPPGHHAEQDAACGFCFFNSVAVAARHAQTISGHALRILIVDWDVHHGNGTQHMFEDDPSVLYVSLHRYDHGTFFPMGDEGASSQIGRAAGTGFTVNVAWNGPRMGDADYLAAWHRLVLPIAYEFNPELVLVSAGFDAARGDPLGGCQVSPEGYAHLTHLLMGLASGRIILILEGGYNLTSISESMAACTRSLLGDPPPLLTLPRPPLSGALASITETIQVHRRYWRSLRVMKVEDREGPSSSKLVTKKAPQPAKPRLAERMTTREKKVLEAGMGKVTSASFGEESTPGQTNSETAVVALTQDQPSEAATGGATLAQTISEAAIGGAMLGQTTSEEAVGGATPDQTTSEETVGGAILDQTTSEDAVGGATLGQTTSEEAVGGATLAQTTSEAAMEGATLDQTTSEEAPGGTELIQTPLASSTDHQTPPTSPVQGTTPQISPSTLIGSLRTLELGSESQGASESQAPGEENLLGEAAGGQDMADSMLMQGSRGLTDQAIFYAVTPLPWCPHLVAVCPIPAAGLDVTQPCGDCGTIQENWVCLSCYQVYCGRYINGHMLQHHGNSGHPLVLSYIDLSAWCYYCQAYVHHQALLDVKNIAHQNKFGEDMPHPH

CDK6/cyclin D3 = CDK6/cyclin D3 (Homo sapiens, UniProt Q00534); experiment: Inhibition of full length human CDK6 (1 to 326 end residues)/N-terminal GST-fusion tagged CyclinD3 (1 to 292 residues) expressed in baculovirus expression system preincubated for 10 mins followed by substrate and ATP addition by mobility shift assay
Histone deacetylase 1 = Histone deacetylase 1 (Homo sapiens, UniProt Q13547); experiment: Inhibition of HDAC1 (unknown origin) measured after 30 mins by fluorescence microplate reader assay
[3] = molecular target: Histone deacetylase (Homo sapiens) (UniProt Q13547+O15379+Q9UBN7+Q92769+Q9UQL6+Q8WUI4+Q9BY41+Q96DB2+P56524+Q9UKV0+Q969S8); conditions: HeLa, Nucleus, dose 1000.0 nM, time 1.0 hrs
Histone deacetylase 2 = Histone deacetylase 2 (Homo sapiens, UniProt Q92769); experiment: Inhibition of HDAC2 (unknown origin) measured after 30 mins by fluorescence microplate reader assay
Histone deacetylase 4 = Histone deacetylase 4 (Homo sapiens, UniProt P56524); experiment: Inhibition of HDAC4 (unknown origin) measured after 30 mins by fluorescence microplate reader assay
Histone deacetylase 8 = molecular target: T2, Histone deacetylase 8 (Homo sapiens, UniProt Q9BY41); experiment: Inhibition of HDAC8 (unknown origin) measured after 30 mins by fluorescence microplate reader assay
T2 sequence (Q9BY41 whole entry): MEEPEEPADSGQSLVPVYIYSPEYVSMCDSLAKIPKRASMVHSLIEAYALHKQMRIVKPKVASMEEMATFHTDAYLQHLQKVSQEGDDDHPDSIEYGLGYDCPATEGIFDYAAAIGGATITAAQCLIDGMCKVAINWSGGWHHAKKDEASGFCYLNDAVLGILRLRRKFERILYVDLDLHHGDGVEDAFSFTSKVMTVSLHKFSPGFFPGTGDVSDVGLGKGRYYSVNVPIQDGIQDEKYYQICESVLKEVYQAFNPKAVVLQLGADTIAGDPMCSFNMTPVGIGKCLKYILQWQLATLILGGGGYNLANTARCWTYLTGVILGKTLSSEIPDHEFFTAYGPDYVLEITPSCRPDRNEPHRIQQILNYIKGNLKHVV

CDK2/Cyclin A2 = CDK2/Cyclin A2 (Homo sapiens, UniProt P24941); experiment: Inhibition of full length human CDK2 (1 to 298 end residues)/N-terminal GST-tagged CyclinA2 (1 to 432 residues) expressed in baculovirus expression system preincubated for 10 mins followed by substrate and ATP addition by mobility shift assay
Histone deacetylase 11 = molecular target: T3, Histone deacetylase 11 (Homo sapiens, UniProt Q96DB2); experiment: Inhibition of recombinant human HDAC11 measured after 30 mins by fluorescence microplate reader assay
T3 sequence (Q96DB2 whole entry): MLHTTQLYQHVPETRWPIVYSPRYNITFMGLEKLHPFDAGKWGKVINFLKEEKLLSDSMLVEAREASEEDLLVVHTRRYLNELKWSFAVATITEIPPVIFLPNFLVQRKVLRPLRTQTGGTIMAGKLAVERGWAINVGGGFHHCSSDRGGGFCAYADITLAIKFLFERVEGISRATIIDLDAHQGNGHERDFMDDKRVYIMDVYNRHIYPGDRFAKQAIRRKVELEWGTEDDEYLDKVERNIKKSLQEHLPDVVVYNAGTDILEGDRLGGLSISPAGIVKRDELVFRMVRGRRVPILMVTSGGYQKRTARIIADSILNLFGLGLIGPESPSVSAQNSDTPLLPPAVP

[4] = molecular target: Histone deacetylase 3/Nuclear receptor corepressor 2 (HDAC3/NCoR2) (Homo sapiens, UniProt O15379); experiment: Inhibition of C-terminal His-tagged recombinant human HDAC3 (1 to 428 residues)/N-terminal GST-tagged recombinant human NCoR2 (395 to 489 residues) co-expressed in baculovirus infected Sf9 cells measured after 30 mins by fluorescence microplate reader assay
[5] = molecular target: CDK6/cyclin D3 (Homo sapiens) (UniProt P30281+Q00534); conditions: dose 100.0 nM, time 10.0 min

Sequence of Histone deacetylase 2 (Q92769 whole entry): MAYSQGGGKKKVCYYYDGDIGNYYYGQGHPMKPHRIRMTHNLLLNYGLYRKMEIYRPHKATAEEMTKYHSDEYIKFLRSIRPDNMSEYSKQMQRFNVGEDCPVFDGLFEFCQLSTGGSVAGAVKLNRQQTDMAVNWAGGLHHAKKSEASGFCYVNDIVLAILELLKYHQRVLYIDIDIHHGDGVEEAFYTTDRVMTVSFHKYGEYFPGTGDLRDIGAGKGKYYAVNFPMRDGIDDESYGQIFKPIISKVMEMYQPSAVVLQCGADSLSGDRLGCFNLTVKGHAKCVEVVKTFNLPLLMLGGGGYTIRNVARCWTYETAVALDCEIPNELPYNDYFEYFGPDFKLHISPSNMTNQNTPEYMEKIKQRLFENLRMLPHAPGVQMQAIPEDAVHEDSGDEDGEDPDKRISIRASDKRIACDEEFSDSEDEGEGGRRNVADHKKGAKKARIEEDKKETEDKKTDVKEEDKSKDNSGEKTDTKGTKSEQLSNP
Sequence of Histone deacetylase 4 (P56524 whole entry): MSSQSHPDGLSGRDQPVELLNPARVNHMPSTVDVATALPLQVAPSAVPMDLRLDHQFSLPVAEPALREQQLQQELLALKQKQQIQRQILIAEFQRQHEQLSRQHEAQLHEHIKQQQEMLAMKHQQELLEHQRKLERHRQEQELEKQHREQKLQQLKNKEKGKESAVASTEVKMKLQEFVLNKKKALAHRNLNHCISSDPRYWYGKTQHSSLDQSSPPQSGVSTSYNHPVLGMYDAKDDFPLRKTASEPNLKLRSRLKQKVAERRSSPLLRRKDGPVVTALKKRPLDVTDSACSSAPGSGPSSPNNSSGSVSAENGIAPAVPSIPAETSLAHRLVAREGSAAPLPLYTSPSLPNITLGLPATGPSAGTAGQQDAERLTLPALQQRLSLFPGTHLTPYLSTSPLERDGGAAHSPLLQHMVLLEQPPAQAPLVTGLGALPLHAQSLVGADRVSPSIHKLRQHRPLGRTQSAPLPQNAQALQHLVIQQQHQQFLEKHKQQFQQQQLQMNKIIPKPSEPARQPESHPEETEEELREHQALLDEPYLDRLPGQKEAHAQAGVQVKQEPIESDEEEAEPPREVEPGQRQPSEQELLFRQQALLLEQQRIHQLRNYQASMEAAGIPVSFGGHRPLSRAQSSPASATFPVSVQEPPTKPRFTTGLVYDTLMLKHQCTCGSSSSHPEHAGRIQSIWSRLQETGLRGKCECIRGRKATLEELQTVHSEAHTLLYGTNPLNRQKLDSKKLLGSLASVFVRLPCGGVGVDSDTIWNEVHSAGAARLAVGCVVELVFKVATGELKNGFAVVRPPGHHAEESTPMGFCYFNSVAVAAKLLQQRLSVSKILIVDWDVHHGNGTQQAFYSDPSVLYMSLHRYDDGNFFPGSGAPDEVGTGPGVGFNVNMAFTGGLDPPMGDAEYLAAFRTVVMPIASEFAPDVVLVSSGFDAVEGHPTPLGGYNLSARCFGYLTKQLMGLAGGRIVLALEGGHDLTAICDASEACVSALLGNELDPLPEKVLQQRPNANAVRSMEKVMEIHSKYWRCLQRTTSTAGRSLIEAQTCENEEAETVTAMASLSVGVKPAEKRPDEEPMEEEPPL
Sequence of Histone deacetylase 1 (Q13547 whole entry): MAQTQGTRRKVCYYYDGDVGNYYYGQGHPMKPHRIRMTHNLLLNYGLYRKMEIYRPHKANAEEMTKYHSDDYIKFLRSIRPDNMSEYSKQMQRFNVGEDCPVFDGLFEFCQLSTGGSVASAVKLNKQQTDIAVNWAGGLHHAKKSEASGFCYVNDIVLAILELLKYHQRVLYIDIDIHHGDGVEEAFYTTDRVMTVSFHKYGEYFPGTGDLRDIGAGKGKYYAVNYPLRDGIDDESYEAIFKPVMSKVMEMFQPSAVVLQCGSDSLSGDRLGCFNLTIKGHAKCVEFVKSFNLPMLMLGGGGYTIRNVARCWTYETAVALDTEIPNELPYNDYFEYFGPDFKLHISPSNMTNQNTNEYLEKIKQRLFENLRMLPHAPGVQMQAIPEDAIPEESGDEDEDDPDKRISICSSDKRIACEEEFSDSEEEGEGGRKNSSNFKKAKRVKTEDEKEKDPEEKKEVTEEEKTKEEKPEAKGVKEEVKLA
Sequence of Histone deacetylase 3/Nuclear receptor corepressor 2 (HDAC3/NCoR2) (O15379 whole entry, the tested form may be a part): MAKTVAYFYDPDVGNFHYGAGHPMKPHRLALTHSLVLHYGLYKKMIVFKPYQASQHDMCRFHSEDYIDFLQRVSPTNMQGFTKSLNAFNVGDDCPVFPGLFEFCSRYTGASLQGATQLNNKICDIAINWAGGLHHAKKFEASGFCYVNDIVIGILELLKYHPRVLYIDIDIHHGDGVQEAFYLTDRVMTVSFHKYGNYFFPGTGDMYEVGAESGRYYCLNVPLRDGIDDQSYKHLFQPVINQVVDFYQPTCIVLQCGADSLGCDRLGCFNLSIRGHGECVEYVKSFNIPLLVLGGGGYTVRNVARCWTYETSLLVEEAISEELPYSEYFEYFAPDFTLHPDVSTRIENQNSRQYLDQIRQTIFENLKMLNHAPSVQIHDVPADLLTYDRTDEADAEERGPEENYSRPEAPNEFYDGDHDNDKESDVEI
Sequence of Histone deacetylase 3/Nuclear receptor corepressor 2 (HDAC3/NCoR2) (Q9Y618 whole entry, further chain, the tested form may be a part): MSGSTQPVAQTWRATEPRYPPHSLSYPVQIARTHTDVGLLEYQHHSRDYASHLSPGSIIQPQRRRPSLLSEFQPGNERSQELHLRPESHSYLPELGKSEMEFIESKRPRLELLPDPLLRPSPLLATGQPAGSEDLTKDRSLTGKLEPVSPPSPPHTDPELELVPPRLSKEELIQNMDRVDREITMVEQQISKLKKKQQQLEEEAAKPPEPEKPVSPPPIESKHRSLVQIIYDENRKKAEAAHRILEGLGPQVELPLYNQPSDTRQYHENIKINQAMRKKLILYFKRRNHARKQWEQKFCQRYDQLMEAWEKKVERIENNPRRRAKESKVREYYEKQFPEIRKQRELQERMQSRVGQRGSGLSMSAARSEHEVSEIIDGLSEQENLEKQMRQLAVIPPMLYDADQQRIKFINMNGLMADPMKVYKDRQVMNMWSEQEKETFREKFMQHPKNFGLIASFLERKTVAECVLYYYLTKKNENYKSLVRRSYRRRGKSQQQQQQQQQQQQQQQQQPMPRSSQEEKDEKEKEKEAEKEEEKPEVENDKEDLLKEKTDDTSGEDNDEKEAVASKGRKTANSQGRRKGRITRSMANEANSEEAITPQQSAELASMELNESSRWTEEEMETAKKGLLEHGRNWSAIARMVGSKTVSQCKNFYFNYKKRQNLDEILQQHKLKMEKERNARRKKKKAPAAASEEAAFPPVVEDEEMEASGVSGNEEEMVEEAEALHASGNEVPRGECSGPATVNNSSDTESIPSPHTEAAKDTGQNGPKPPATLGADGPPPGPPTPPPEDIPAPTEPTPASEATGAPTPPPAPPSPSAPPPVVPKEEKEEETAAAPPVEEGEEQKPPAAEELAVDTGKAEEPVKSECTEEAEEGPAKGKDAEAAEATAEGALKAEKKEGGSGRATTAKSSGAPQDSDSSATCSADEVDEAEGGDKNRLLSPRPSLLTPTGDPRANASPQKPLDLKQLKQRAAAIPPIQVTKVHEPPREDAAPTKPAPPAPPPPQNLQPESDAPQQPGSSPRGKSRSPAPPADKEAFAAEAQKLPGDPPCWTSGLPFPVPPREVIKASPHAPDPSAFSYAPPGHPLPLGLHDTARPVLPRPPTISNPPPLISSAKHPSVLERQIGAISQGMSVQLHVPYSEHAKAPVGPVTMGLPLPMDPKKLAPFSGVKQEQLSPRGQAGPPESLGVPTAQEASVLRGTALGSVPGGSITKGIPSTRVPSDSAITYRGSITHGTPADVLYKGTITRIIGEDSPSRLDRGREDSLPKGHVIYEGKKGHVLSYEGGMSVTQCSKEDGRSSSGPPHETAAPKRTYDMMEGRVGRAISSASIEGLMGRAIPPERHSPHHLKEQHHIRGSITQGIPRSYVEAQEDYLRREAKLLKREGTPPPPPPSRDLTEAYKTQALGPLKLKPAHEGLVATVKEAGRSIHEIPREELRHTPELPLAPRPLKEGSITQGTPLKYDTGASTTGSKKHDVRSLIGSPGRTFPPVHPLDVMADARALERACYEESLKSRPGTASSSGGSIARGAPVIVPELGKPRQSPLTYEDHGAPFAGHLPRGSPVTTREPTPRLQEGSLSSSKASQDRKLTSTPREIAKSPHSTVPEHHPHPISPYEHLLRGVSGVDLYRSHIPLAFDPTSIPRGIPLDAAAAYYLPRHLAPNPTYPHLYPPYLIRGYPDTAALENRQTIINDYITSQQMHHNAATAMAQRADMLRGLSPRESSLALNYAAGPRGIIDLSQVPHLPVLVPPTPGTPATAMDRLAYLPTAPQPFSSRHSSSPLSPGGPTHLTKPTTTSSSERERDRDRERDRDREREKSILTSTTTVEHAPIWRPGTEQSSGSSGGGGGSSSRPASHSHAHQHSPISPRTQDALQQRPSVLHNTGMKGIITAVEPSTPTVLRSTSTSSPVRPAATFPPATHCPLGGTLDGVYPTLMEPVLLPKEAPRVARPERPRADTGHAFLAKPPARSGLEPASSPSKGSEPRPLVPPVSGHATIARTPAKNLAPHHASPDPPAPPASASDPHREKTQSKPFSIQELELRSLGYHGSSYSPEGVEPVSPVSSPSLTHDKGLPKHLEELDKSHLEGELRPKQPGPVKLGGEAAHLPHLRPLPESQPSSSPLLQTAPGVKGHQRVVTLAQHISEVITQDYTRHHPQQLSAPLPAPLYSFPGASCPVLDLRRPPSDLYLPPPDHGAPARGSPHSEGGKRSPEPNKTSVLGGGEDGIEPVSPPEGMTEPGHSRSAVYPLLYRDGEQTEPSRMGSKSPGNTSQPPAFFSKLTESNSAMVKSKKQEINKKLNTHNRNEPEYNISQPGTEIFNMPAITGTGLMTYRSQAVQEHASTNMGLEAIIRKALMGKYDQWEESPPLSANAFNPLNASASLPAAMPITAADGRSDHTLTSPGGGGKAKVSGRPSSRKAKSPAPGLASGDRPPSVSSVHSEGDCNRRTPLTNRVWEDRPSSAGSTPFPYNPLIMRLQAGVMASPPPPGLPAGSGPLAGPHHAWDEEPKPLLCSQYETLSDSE

For `O=C(CCCO/N=C1/C(=C2/C(=O)Nc3ccccc32)Nc2ccccc21)NO`, the inhibition [1] was 66.8%, the IC50 [2] was 0.129 µM and the IC50 (CDK6/cyclin D3) was 0.0272 µM. For the same compound, the IC50 (Histone deacetylase 1) was over 5 µM, the inhibition [3] was 51% and the IC50 (Histone deacetylase 2) was over 5 µM. The IC50 (Histone deacetylase 4) was over 5 µM, the IC50 (Histone deacetylase 8) was over 5 µM and the IC50 (CDK2/Cyclin A2) was 0.0609 µM. The IC50 (Histone deacetylase 11) was over 5 µM, the IC50 [4] was over 5 µM and the inhibition [5] was 76.6%.
Work on `C#CCN1C(=O)/C(=C2\Nc3ccccc3\C2=N/OCCCC(=O)NO)c2ccccc21` yielded an inhibition [1] of 4.5%, an IC50 [2] of 1.87 µM and an IC50 (CDK6/cyclin D3) of over 1 µM. It also gave an IC50 (Histone deacetylase 1) of over 100 µM, an inhibition [3] of 23% and an IC50 (Histone deacetylase 2) of over 100 µM. The IC50 (Histone deacetylase 4) was over 100 µM, the IC50 (Histone deacetylase 8) was over 5 µM and the IC50 (CDK2/Cyclin A2) was over 1 µM. For the same compound, the IC50 (Histone deacetylase 11) was over 5 µM, the IC50 [4] was over 100 µM and the inhibition [5] was 0.8%.
`O=C(O)CCCO/N=C1/C(=C2/C(=O)Nc3ccccc32)Nc2ccccc21` showed an inhibition [1] of 34.9%, an IC50 [2] of over 5 µM and an IC50 (CDK6/cyclin D3) of 0.0682 µM. The IC50 (Histone deacetylase 1) was over 5 µM, the inhibition [3] was 0.1% and the IC50 (Histone deacetylase 2) was over 5 µM. The IC50 (Histone deacetylase 4) was over 5 µM, the IC50 (Histone deacetylase 8) was over 5 µM and the IC50 (CDK2/Cyclin A2) was 0.119 µM. It also gave an IC50 (Histone deacetylase 11) of over 5 µM, an IC50 [4] of over 5 µM and an inhibition [5] of 41.3%.
